Data reported in PubChem BioAssay (NCI).
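Cells were grown in 96-well plates and exposed to each compound for 48 hours at five concentrations; endpoints were interpolated linearly between bracketing concentrations, or set to the highest concentration if not reached. TGI: concentration producing complete growth inhibition.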

Legend:
Assay in all cases: NCI tumour cell line growth inhibition, 48 h
786-0 renal = test system: 786-0 renal
A498 renal = test system: A498 renal
A549 NSCLC = test system: A549 NSCLC
ACHN renal = test system: ACHN renal
BT-549 breast = test system: BT-549 breast
CAKI-1 renal = test system: CAKI-1 renal
COLO 205 colon = test system: COLO 205 colon
DU-145 prostate = test system: DU-145 prostate
EKVX NSCLC = test system: EKVX NSCLC
HCC-2998 colon = test system: HCC-2998 colon
HCT-116 colon = test system: HCT-116 colon
HCT-15 colon = test system: HCT-15 colon
HL-60(TB) leukemia = test system: HL-60(TB) leukemia
HOP-62 NSCLC = test system: HOP-62 NSCLC
HOP-92 NSCLC = test system: HOP-92 NSCLC
HS 578T breast = test system: HS 578T breast
HT29 colon = test system: HT29 colon
IGROV1 ovarian = test system: IGROV1 ovarian
KM12 colon = test system: KM12 colon
LOX IMVI melanoma = test system: LOX IMVI melanoma
M14 melanoma = test system: M14 melanoma
MCF7 breast = test system: MCF7 breast
MDA-MB-231 breast = test system: MDA-MB-231 breast
MDA-MB-435 = test system: MDA-MB-435
MDA-N = test system: MDA-N
MOLT-4 leukemia = test system: MOLT-4 leukemia
NCI-H226 lung = test system: NCI-H226 lung
NCI-H23 lung = test system: NCI-H23 lung
NCI-H460 lung = test system: NCI-H460 lung
NCI-H522 lung = test system: NCI-H522 lung
NCI/ADR-RES ovarian = test system: NCI/ADR-RES ovarian
OVCAR-3 ovarian = test system: OVCAR-3 ovarian
OVCAR-4 ovarian = test system: OVCAR-4 ovarian
OVCAR-5 ovarian = test system: OVCAR-5 ovarian
OVCAR-8 ovarian = test system: OVCAR-8 ovarian
PC-3 prostate = test system: PC-3 prostate
RPMI-8226 leukemia = test system: RPMI-8226 leukemia
RXF 393 renal = test system: RXF 393 renal
SF-268 CNS = test system: SF-268 CNS
SF-295 CNS = test system: SF-295 CNS
SF-539 CNS = test system: SF-539 CNS
SK-MEL-2 melanoma = test system: SK-MEL-2 melanoma
SK-MEL-28 melanoma = test system: SK-MEL-28 melanoma
SK-MEL-5 melanoma = test system: SK-MEL-5 melanoma
SK-OV-3 ovarian = test system: SK-OV-3 ovarian
SN12C renal = test system: SN12C renal
SNB-19 CNS = test system: SNB-19 CNS
SNB-75 CNS = test system: SNB-75 CNS
SW-620 colon = test system: SW-620 colon
T-47D breast = test system: T-47D breast
TK-10 renal = test system: TK-10 renal
U251 CNS = test system: U251 CNS
UACC-257 melanoma = test system: UACC-257 melanoma
UACC-62 melanoma = test system: UACC-62 melanoma
UO-31 renal = test system: UO-31 renal
CCRF-CEM leukemia = test system: CCRF-CEM leukemia
K-562 leukemia = test system: K-562 leukemia
MALME-3M melanoma = test system: MALME-3M melanoma

CC(=O)/C(=C/c1ccccc1F)C(=O)c1ccccc1 showed a TGI (786-0 renal) of over 100 µM, a TGI (A498 renal) of over 100 µM and a TGI (A549 NSCLC) of over 100 µM. The TGI (ACHN renal) was over 100 µM, the TGI (BT-549 breast) was over 100 µM and the TGI (CAKI-1 renal) was over 100 µM. For the same compound, the TGI (COLO 205 colon) was over 100 µM, the TGI (DU-145 prostate) was over 100 µM and the TGI (EKVX NSCLC) was over 100 µM. It also gave a TGI (HCC-2998 colon) of 45.1 µM, a TGI (HCT-116 colon) of over 100 µM and a TGI (HCT-15 colon) of over 100 µM. For the same compound, the TGI (HL-60(TB) leukemia) was over 100 µM, the TGI (HOP-62 NSCLC) was over 100 µM and the TGI (HOP-92 NSCLC) was over 100 µM. For the same compound, the TGI (HS 578T breast) was over 100 µM, the TGI (HT29 colon) was over 100 µM and the TGI (IGROV1 ovarian) was over 100 µM. It also gave a TGI (KM12 colon) of over 100 µM, a TGI (LOX IMVI melanoma) of 40.8 µM and a TGI (M14 melanoma) of over 100 µM. It also gave a TGI (MCF7 breast) of over 100 µM, a TGI (MDA-MB-231 breast) of 92.5 µM and a TGI (MDA-MB-435) of over 100 µM. It also gave a TGI (MDA-N) of over 100 µM, a TGI (MOLT-4 leukemia) of 7.14 µM and a TGI (NCI-H226 lung) of over 100 µM. The TGI (NCI-H23 lung) was over 100 µM, the TGI (NCI-H460 lung) was 97.8 µM and the TGI (NCI-H522 lung) was over 100 µM. For the same compound, the TGI (NCI/ADR-RES ovarian) was over 100 µM, the TGI (OVCAR-3 ovarian) was 58.8 µM and the TGI (OVCAR-4 ovarian) was over 100 µM. The TGI (OVCAR-5 ovarian) was over 100 µM, the TGI (OVCAR-8 ovarian) was 51 µM and the TGI (PC-3 prostate) was over 100 µM. For the same compound, the TGI (RPMI-8226 leukemia) was 44.4 µM, the TGI (RXF 393 renal) was 46 µM and the TGI (SF-268 CNS) was over 100 µM. It also gave a TGI (SF-295 CNS) of over 100 µM, a TGI (SF-539 CNS) of over 100 µM and a TGI (SK-MEL-2 melanoma) of 93.8 µM. It also gave a TGI (SK-MEL-28 melanoma) of over 100 µM, a TGI (SK-MEL-5 melanoma) of over 100 µM and a TGI (SK-OV-3 ovarian) of over 100 µM. It also gave a TGI (SN12C renal) of over 100 µM, a TGI (SNB-19 CNS) of over 100 µM and a TGI (SNB-75 CNS) of over 100 µM. It also gave a TGI (SW-620 colon) of 56.1 µM, a TGI (T-47D breast) of over 100 µM and a TGI (TK-10 renal) of 80.9 µM. For the same compound, the TGI (U251 CNS) was over 100 µM, the TGI (UACC-257 melanoma) was 91.3 µM and the TGI (UACC-62 melanoma) was over 100 µM. It also gave a TGI (UO-31 renal) of over 100 µM.
NS(=O)(=O)c1cccc(NC(=S)NC(=O)Nc2ccc(Cl)c(Cl)c2)c1 gave a TGI (786-0 renal) of 30.3 µM, a TGI (A498 renal) of 26.3 µM and a TGI (A549 NSCLC) of 61.4 µM. The TGI (ACHN renal) was 48.7 µM, the TGI (BT-549 breast) was 32.1 µM and the TGI (CCRF-CEM leukemia) was 78.1 µM. It also gave a TGI (COLO 205 colon) of 35.4 µM, a TGI (DU-145 prostate) of 97.9 µM and a TGI (HCT-116 colon) of 31.4 µM. The TGI (HCT-15 colon) was 33.6 µM, the TGI (HOP-62 NSCLC) was 30.9 µM and the TGI (HOP-92 NSCLC) was 54 µM. The TGI (HS 578T breast) was 45.6 µM, the TGI (HT29 colon) was 86.6 µM and the TGI (IGROV1 ovarian) was 45.4 µM. The TGI (K-562 leukemia) was 37.2 µM, the TGI (KM12 colon) was 31.4 µM and the TGI (LOX IMVI melanoma) was 33.4 µM. For the same compound, the TGI (M14 melanoma) was 28.2 µM, the TGI (MALME-3M melanoma) was 29.4 µM and the TGI (MCF7 breast) was 37.1 µM. It also gave a TGI (MDA-MB-231 breast) of 38.5 µM, a TGI (MDA-N) of 38.2 µM and a TGI (MOLT-4 leukemia) of 37.6 µM. The TGI (NCI-H23 lung) was 34 µM, the TGI (NCI-H460 lung) was 44.6 µM and the TGI (NCI-H522 lung) was 28.6 µM. It also gave a TGI (NCI/ADR-RES ovarian) of 36.1 µM, a TGI (OVCAR-4 ovarian) of 76.9 µM and a TGI (OVCAR-5 ovarian) of 84 µM. The TGI (OVCAR-8 ovarian) was 32.5 µM, the TGI (PC-3 prostate) was 41.2 µM and the TGI (RPMI-8226 leukemia) was 41.7 µM. The TGI (RXF 393 renal) was 58.9 µM, the TGI (SF-268 CNS) was 56.4 µM and the TGI (SF-295 CNS) was 44.7 µM. For the same compound, the TGI (SF-539 CNS) was 38.1 µM, the TGI (SK-MEL-2 melanoma) was 40.2 µM and the TGI (SK-MEL-28 melanoma) was 42.9 µM. It also gave a TGI (SK-MEL-5 melanoma) of 30.8 µM, a TGI (SK-OV-3 ovarian) of 54.1 µM and a TGI (SN12C renal) of 32.6 µM. It also gave a TGI (SNB-19 CNS) of 58.2 µM, a TGI (SNB-75 CNS) of 54.9 µM and a TGI (SW-620 colon) of 37.9 µM. For the same compound, the TGI (T-47D breast) was 67.6 µM, the TGI (TK-10 renal) was over 100 µM and the TGI (U251 CNS) was 39.6 µM. For the same compound, the TGI (UACC-257 melanoma) was over 100 µM, the TGI (UACC-62 melanoma) was 26 µM and the TGI (UO-31 renal) was 37.8 µM.
